# Measured values as given in patent publication US20260327225A1, “HETEROCYCLIC COMPOUNDS AS TRIGGERING RECEPTOR EXPRESSED ON MYELOID CELLS 2 AGONISTS AND METHODS OF USE” (VIGIL NEUROSCIENCE, INC., priority 2023, published 2026).
# Biological target: T1, human TREM2 (Homo sapiens, UniProt Q9NZC2)
# T1 construct: expressed in transfected cells; host or cells: HEK293T-hTREM2 cells (HEK cell line expressing human TREM2 and DAP12)
# Assay: TREM2 agonist potency by cellular phosphorylation of Syk (AlphaLisa) in HEK293T-hTREM2 cells expressing human TREM2 and DAP12
# Format: cell-based
# Conditions: not given
# Outline: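 HEK293T cells co-expressing human TREM2 and DAP12 were exposed to compound in assay buffer for 45 min at room temperature, then lysed. Phospho-Syk measured by AlphaLisa; % activation fitted with a four-parameter agonist curve to give EC50.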
# T1 sequence (Q9NZC2 19-230): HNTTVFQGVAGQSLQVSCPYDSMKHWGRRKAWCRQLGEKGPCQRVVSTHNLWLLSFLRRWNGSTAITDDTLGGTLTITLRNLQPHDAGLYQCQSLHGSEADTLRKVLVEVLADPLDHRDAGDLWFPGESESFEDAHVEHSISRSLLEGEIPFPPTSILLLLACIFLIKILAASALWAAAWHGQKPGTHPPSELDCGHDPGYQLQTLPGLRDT
# T1 sequence (O43914 22-113 partner): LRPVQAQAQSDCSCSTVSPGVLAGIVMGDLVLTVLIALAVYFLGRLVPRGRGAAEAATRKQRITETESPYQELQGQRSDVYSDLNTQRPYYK
row,Structure (SMILES),EC50 [nM]
1,"Cc1cc2c(-n3cccc3)nc(N3C[C@@H](C)O[C@@H](c4cnn(C5CC5)c4)C3)nc2nc1C [Example 67, (2S,6R)-2-(1-cyclopropyl-pyrazol-4-yl)-4-(6,7-dimethyl-4-pyrrol-1-yl-pyrido[2,3-d]pyrimidin-2-yl)-6-methyl-morpholine]",100 to 500

# Same assay, conditions: HEK293 cells expressing hTREM2 and DAP12; 45 minutes at room temperature; Syk phosphorylation, AlphaLisa; read-out: hTREM2 EC50
row,Structure (SMILES),EC50 [nM]
1,"Cc1noc(-c2cc3c(C4CCCCC4)nc(N4CCO[C@@H](c5cnn(C)c5)C4)nc3nc2C)n1 [Example 44, (2S)-4-[4-cyclohexyl-7-methyl-6-(3-methyl-1,2,4-oxadiazol-5-yl)-pyrido [2,3-d]-pyrimidin-2-yl]-2-(1-methyl-pyrazol-4-yl) morpholine]",100 to 500
2,"Cc1cc2c(C3CCCC3)nc(N3C[C@@H](C)O[C@@H](c4cnn(C5CC5)c4)C3)nc2nc1C [Example 65, (2S,6R)-4-(4-cyclopentyl-6,7-dimethylpyrido[2,3-d]pyrimidin-2-yl)-2-(1-cyclopropylpyrazol-4-yl)-6-methylmorpholine]",< 100
3,"Cc1nc2nc([C@H]3CCO[C@@H](c4cnn(C5CC5)c4)C3)nc(C34CC(C(F)(F)F)(C3)C4)c2cc1-c1cnn(C)c1 [Example 26, 2-((2R,4S)-2-(1-cyclopropyl-1H-pyrazol-4-yl)tetrahydro-2H-pyran-4-yl)-7-methyl-6-(1-methyl-1H-pyrazol-4-yl)-4-(3-(trifluoromethyl)bicyclo[1.1.1]pentan-1-yl)pyrido[2,3-d]pyrimidine]",< 100
4,"Cc1nc2nc(N3C[C@@H](C)O[C@@H](c4cnn(C5CC5)c4)C3)nc(-c3ccc(=O)n(C)c3)c2nc1C [Example 104, 5-[2-[(2S,6R)-2-(1-cyclopropylpyrazol-4-yl)-6-methyl-morpholin-4-yl]-6,7-dimethyl-pteridin-4-yl]-1-methyl-pyridin-2-one]",> 500
5,"Cc1noc(-c2cc3c(-c4ccc(F)cc4F)nc(N4C[C@@H](C)O[C@@H](c5cnn(C6CC6)c5)C4)nc3nc2C)n1 [Example 6, (2S,6R)-2-(1-cyclopropylpyrazol-4-yl)-4-[4-(2,4-difluorophenyl)-7-methyl-6-(3-methyl-1,2,4-oxadiazol-5-yl)-pyrido[2,3-d]pyrimidin-2-yl]-6-methyl-morpholine]",< 100
6,"Cc1cc2c(-c3ccc(C(F)(F)F)cc3F)nc([C@H]3CCO[C@@H](c4cnn(C5CC5)c4)C3)nc2c(=O)n1C [Example 136, 2-[(2R,4S)-2-(1-cyclopropylpyrazol-4-yl)tetrahydropyran-4-yl]-4-[2-fluoro-4-(trifluoromethyl)phenyl]-6,7-dimethyl-pyrido[3,4-d]pyrimidin-8-one]",< 100
7,"Cc1nc2nc([C@H]3CCO[C@@H](c4cn(C)c(=O)s4)C3)nc(C34CC(C(F)(F)F)(C3)C4)c2nc1C (racemic) [Example 106, 3-methyl-5-[rac-(2R,4S)-4-[6,7-dimethyl-4-[3-(trifluoromethyl)-1-bicyclo[1.1.1]pentanyl]-pteridin-2-yl]tetrahydropyran-2-yl]thiazol-2-one]",< 100
8,"Cc1nc2ccc(C3CC(c4nc(-c5ccc(F)cc5F)c5nc(C)c(C)nc5n4)CCO3)cc2o1 (stereo not drawn) [Example 113, 6-[4-[4-(2,4-difluorophenyl)-6,7-dimethyl-pteridin-2-yl]tetrahydropyran-2-yl]-2-methyl-1,3-benzoxazole]",< 100
9,COCn1cc([C@H]2CN(c3nc(C45CC(C(F)(F)F)(C4)C5)c4cc(C#N)c(C)nc4n3)C[C@@H](C)O2)cn1 [Example 71],< 100
10,"Cc1nc2nc([C@H]3CCO[C@@H](c4cnn(C5CC5)c4)C3)nc(C34CC(C(F)(F)F)(C3)C4)c2cc1F [Example 24, 2-[(2R,4S)-2-(1-cyclopropylpyrazol-4-yl)tetrahydropyran-4-yl]-6-fluoro-7-methyl-4-[3-(trifluoromethyl)-1-bicyclo[1.1.1]pentanyl]-pyrido[2,3-d]pyrimidine]",< 100
11,"Cc1nc2nc([C@H]3CCO[C@@H](c4cnn(C5CC5)c4)C3)nc(C34CC(C(F)(F)F)(C3)C4)c2cc1C#N [Example 29, 2-[(2R,4S)-2-(1-cyclopropylpyrazol-4-yl)tetrahydropyran-4-yl]-7-methyl-4-[3-(trifluoromethyl)-1-bicyclo[1.1.1]pentanyl]pyrido[2,3-d]pyrimidine-6-carbonitrile]",< 100
12,"Cc1nc2nc(C3CCOC(c4cnnc(N(C)C)c4)C3)nc(C34CC(C(F)(F)F)(C3)C4)c2nc1C (racemic) [Example 129, N,N-dimethyl-5-[rac-cis-4-[6,7-dimethyl-4-[3-(trifluoromethyl)-1-bicyclo[1.1.1]pentanyl]pteridin-2-yl]tetrahydropyran-2-yl]pyridazin-3-amine]",< 100
13,"Cc1nc2nc(N3C[C@@H](C)O[C@@H](c4cnn(C5CC5)c4)C3)nc(C34CC(C3)C4)c2nc1C [Example 100, (2S,6R)-4-[4-(1-bicyclo[1.1.1]pentanyl)-6,7-dimethyl-pteridin-2-yl]-2-(1-cyclopropylpyrazol-4-yl)-6-methyl-morpholine]",< 100

# Next, values leading:
row,EC50 [nM],Structure (SMILES)
1,< 100,"Cc1nc2nc([C@H]3CCO[C@@H](c4cn(C)c(=O)s4)C3)nc(C34CC(C(F)(F)F)(C3)C4)c2nc1C [Example 108, 5-[(2R,4S)-4-[6,7-dimethyl-4-[3-(trifluoromethyl)-1-bicyclo[1.1.1]pentanyl]pteridin-2-yl]tetrahydropyran-2-yl]-3-methyl-thiazol-2-one]"
2,< 100,"Cc1nc2nc([C@H]3CCO[C@@H](c4cnn(C5CC5)c4)C3)nc(C34C5C6C3C3C4C5C63C(F)(F)F)c2nc1C (stereo partly drawn) [Example 143, 2-((2R,4S)-2-(1-cyclopropyl-1H-pyrazol-4-yl)tetrahydro-2H-pyran-4-yl)-6,7-dimethyl-4-(4-(trifluoromethyl)-cuban-1-yl)pteridine]"
3,< 100,"Cc1nc2nc([C@H]3CCO[C@@H](c4cn(C)c(=O)s4)C3)nc(C34CC(C(F)(F)F)(C3)C4)c2cc1C#N (racemic) [Example 81, 7-methyl-2-[rac-(2R,4S)-2-(3-methyl-2-oxo-thiazol-5-yl)tetrahydropyran-4-yl]-4-[3-(trifluoromethyl)-1-bicyclo[1.1.1]pentanyl]pyrido[2,3-d]pyrimidine-6-carbonitrile]"
4,< 100,"Cc1nc2nc(N3C[C@@H](C)O[C@@H](c4cnn(C5CC5)c4)C3)nc(C3CCCCC3)c2cc1C#N [Example 35, 4-cyclohexyl-2-[(2S,6R)-2-(1-cyclopropylpyrazol-4-yl)-6-methyl-morpholin-4-yl]-7-methyl-pyrido[2,3-d]pyrimidine-6-carbonitrile]"
5,< 100,"Cc1nc2nc(C3CCOC(C4CCn5nccc5C4)C3)nc(C34CC(C(F)(F)F)(C3)C4)c2nc1C (stereo not drawn) [Example 110, 6,7-dimethyl-2-[2-(4,5,6,7-tetrahydropyrazolo[1,5-a]pyridin-5-yl)tetrahydropyran-4-yl]-4-[3-(trifluoromethyl)-1-bicyclo[1.1.1]pentanyl]pteridine]"
6,< 100,"Cc1noc(-c2cc3c(-c4ccc(F)cc4F)nc([C@H]4CCO[C@@H](c5cnn(C6CC6)c5)C4)nc3nc2C)n1 (racemic) [Example 19, 5-[4-(2,4-difluorophenyl)-7-methyl-2-[rac-(2R,4S)-2-(1-cyclopropylpyrazol-4-yl)-tetrahydropyran-4-yl]pyrido[2,3-d]pyrimidin-6-yl]-3-methyl-1,2,4-oxadiazole]"
7,< 100,"Cc1nnc(-c2cc3c(-c4ccc(F)cc4F)nc(N4C[C@@H](C)O[C@@H](c5cnn(C6CC6)c5)C4)nc3nc2C)s1 [Example 10, (2S,6R)-2-(1-cyclopropylpyrazol-4-yl)-4-[4-(2,4-difluorophenyl)-7-methyl-6-(5-methyl-1,3,4-thiadiazol-2-yl)pyrido[2,3-d]pyrimidin-2-yl]-6-methyl-morpholine]"
8,< 100,"Cc1nc2nc([C@H]3CCO[C@@H](c4cnn(C5CC5)c4)C3)nc(-c3ccc(F)cc3F)c2cc1C#N [Example 18, 2-[(2R,4S)-2-(1-cyclopropylpyrazol-4-yl)tetrahydropyran-4-yl]-4-(2,4-difluorophenyl)-7-methyl-pyrido[2,3-d]pyrimidine-6-carbonitrile]"
9,< 100,"Cc1nc2nc([C@H]3CCO[C@@H](c4ccnc(N(C)C)c4)C3)nc(C34CC(C(F)(F)F)(C3)C4)c2nc1C (racemic) [Example 124, N,N-dimethyl-4-[rac-4-[6,7-dimethyl-4-[3-(trifluoromethyl)-1-bicyclo[1.1.1]pentanyl]pteridin-2-yl]tetrahydropyran-2-yl]pyridin-2-amine]"
10,< 100,"Cc1cc(-c2cc3c(-c4ccc(F)cc4F)nc(N4C[C@@H](C)O[C@@H](c5cnn(C6CC6)c5)C4)nc3nc2C)on1 [Example 11, (2S,6R)-2-(1-cyclopropylpyrazol-4-yl)-4-[4-(2,4-difluorophenyl)-7-methyl-6-(3-methylisoxazol-5-yl)pyrido[2,3-d]pyrimidin-2-yl]-6-methyl-morpholine]"
11,< 100,"CC(=O)c1cc2c(-c3ccc(F)cc3F)nc(N3C[C@@H](C)O[C@@H](c4cnn(C5CC5)c4)C3)nc2nc1C [Example 4, 1-[2-[(2S,6R)-2-(1-cyclopropylpyrazol-4-yl)-6-methyl-morpholin-4-yl]-4-(2,4-difluorophenyl)-7-methyl-pyrido[2,3-d]pyrimidin-6-yl]ethanone]"
12,< 100,"Cc1nc2nc([C@@H]3CCO[C@H](c4cn(C)c(=O)s4)C3)nc(C34CC(C(F)(F)F)(C3)C4)c2nc1C [Example 107, 5-[(2S,4R)-4-[6,7-dimethyl-4-[3-(trifluoromethyl)-1-bicyclo[1.1.1]pentanyl]pteridin-2-yl]tetrahydropyran-2-yl]-3-methyl-thiazol-2-one]"
13,< 100,"Cc1nc2ccc(C3CC(c4nc(-c5ccc(F)cc5F)c5nc(C)c(C)nc5n4)CCO3)cc2s1 (stereo not drawn) [Example 115, 6-[4-[4-(2,4-difluorophenyl)-6,7-dimethyl-pteridin-2-yl]tetrahydropyran-2-yl]-2-methyl-1,3-benzothiazole]"
